Results from US20030129189A1, “Tumor necrosis factor-gamma” (priority 1994, published 2003).

Columns and labels:
HL-60 = test: TNF-gamma activity on HL-60 cells (incl. cell adhesion); type: cell-based, human; parameters: key to Proliferation / Differentiation / Adhesion: The numbers of “+” indicate the relative level of activities.; ++: The numbers of “+” indicate the relative level of activities.; +++: The numbers of “+” indicate the relative level of activities.; “−” indicates no detected activity at the concentration range tested
Experimental: The adherent target cells were prepared from confluent cultures by trypsinization in PBS, and non-adherent target cells were harvested from stationary cultures and washed once with medium. Target cells were suspended at 3×10^5 cells/ml in medium containing 10% FCS. 0.1 ml aliquots were dispensed into 96-well flat-bottomed microtiter plates containing 0.1 ml serially diluted test samples of cells (WEHI 164 and L929). Incubation was continued for 70 hours. TNF-alpha, TNF-beta and bacterially-produced TNF-gamma were added at a 0.5 μg/ml concentration. The cytotoxicity and proliferation activity was quantified using an MTS assay performed by the addition of 20 μl of MTS and phenazine methosulfate (PMS) solution to each well. After a three hour incubation, the OD at 492 nm was measured by an ELISA plate reader. The OD492 is proportional to the number of viable cells in the wells. The percent of cytotoxicity was calculated as follows: […]. The photographs were taken after 72 hours.
To test adhesion ability of TNF-gamma, HL-60 cells were used and cell adhesion and cell-cell contact were measured by observation under the microscope and scored subjectively by two independent investigators. FIG. 11 illustrates the ability of TNF-gamma to induce cell adhesion. Cultures which were not treated with TNF-gamma contained cells which had spread throughout the culture dish.

[1] = test system: MC-38 murine colon cancer; test: In vivo tumorigenicity assay, syngeneic MC-38 colon cancer; parameters: species or system C57BL6/6 mice; conditions: local production by transfected MCA 38 cells, 1×10^6 cells/mouse
Experimental: [The full-length TNF-gamma and extracellular domain of DR3 was cloned into pcDNA3 expression vector and transfected to MCA 38 cells, respectively. After selection and cloning, three clones from each constructs were picked for tumorigenicity study. MCA 38 cells (1×10^6 cells/mouse) expressing TNF-gamma or DR3 extracellular domain were injected into C57BL6/6 mice. The tumor size was assessed by measuring perpendicular diameters with a caliper and calculated by multiplying the measurements of diameters in two dimensions. Data are represented as the mean +/−SD of 6 mice in each group.] It is clear that most immune cells and cancer cells can express more than one TNF receptor (even more than one death receptor) and ligand superfamily member. […] Moreover, the expression of these ligands and receptors may differ at the level of individual cell types within tissues and the expression level on the same cell type may also differ.
The full length TNF-gamma and extracellular domain of DR3 was cloned into pcDNA3 expression vector (Invitrogen, Carlsbad, Calif.) and transfected to MCA 38 cells, respectively. […] Mice then were randomized and tumors were measured twice weekly. The tumor size was assessed by measuring perpendicular diameters with a caliper and calculated by multiplying the measurements of diameters in two dimensions. […]

[2] = test system: bovine pulmonary artery endothelial cells (BPAEC); test: Endothelial cell apoptosis (morphology, Hoechst staining, DNA fragmentation); type: cell-based; conditions: BPAEC, 48 hours, Hoechst 33342
Experimental: [Bovine pulmonary artery endothelial cells were incubated with various concentrations of TNF-gamma for 48 hours. The apoptosis was assessed by nuclear staining with Hoechst 33342 fluorescence dye (10 mg/ml).] […] [U937 cells were transfected using lipofectamine (following manufacturer's instruction) with 0.2 mg of reporter plasmid (NF-kappaB-SEAP). The transfected U937 cells were collected and added to the 96-well plate ([…]/well) with various concentrated of TNF-gamma. After Incubation at 37° C. for 72 hr, the NF-kappaB activity was measured with luminometer at absorbance of 450 nm.]
Bovine pulmonary artery endothelia cells (BPAEC) were incubated with various concentrations of TNF-gamma for 48 hours. Apoptosis was assessed morphologically and by nuclear staining with Hoechst 33342 fluorescence dye (10 mg/ml) in triplicate. Live and apoptotic cells were scored in four random fields, about 1,000 cells were counted. The DNA fragmentation was analyzed as described previously.
BPAEC were obtained from the American Type Culture Collection (Rockville, Md., USA). The cells were grown in DMEM supplemented with 10% heat-inactivated FCS in a humidified environment of 5% CO2/[…] at 37° C. as previously described (Yue, T. L., et al., Mol. Pharmacol. 51:951-962 (1997)). Cells at a subconfluent density were used. Before experiments, the medium was changed to DMEM contained 2% FCS. BPAEC from passages 17-20 were used in all studies.
To quantify cells undergoing apoptosis, cell monolayers were fixed and stained with Hoechst […] (Molecular probe, Eugene, Oreg., USA) as described previously (Yue, T. L., et al., Mol. Pharmacol. 51:951-962 (1997)). The morphological features of apoptosis (cell shrinkage, chromatin condensation, blebbing, and fragmentation) were monitored by fluorescence microscopy. Transmission electron microscopy study was done as reported previously (Yue, T. L., et al., Mol. Pharmacol. 51:951-962 (1997)).
DNA ladder: Cells treated with vehicle or TNF-gamma-alpha were lysed in lysis buffer containing 100 mM NaCl, 10 mM Tris-HCl, pH 8.0, 2.5 mM EEDTA, 0.5% SDS, and 100 micrograms/ml […]. The lysates were incubated at 55° C. for 16 h. After incubation, the lysates were gently extracted three times with pheno/chloroform/isoamyl alcohol, precipitated in ethanol, treated with DNAse-free RNAse, re-extracted, and precipitated again as described previously. DNA electrophoresis was carried out in 1.8% agarose gels containing ethidium bromide, and DNA fragmentations were visualized under ultraviolet light.
In situ end-labeling (TUNEL): BPAEC were cultured in two-chamber slides (Nunc) and treated with TNF-gamma-alpha for 8 to 24 h. In situ detection of apoptotic cells was performed by using terminal deoxyribonucleotide transferase-mediated dUTP nick end labeling with an ApopTag in situ apoptosis detection kit (Oncor) following the manufacturer's recommendation.
The cells were plated in two-chamber slides. The cells were cotransfected with 0.5 μg/ml of Pegfp-c-1 (Clontech; Li, Y. and Horwitz, M. S. Biotechnology 23:1026-1028) as a fluorescent marker of transfected cells together with 1 μg/ml of either the empty cloning vector pcDNA1 (control) or the dominant-interfering c-Jun mutant pcDNA1-FlagΔ169 (Xia, Z., et al., Science 270:1326-1331 (1995)) using Calphos Maximizer Transfection Kit (Clontech) according to the manufacturer's recommendation. Following transfection, the cells were allowed to recover in complete medium for 24 h. The cells were treated with TNF-gamma-alpha and the number of apoptotic cells was assessed by nuclear staining after fixation as described in Methods.

[3] = HL-60, human promyelocytic leukemia

TNF-gamma: new member of the tumor necrosis factor family; the term refers to TNF-gamma-alpha and/or TNF-gamma-beta
Adhesion (HL-60; [3]): ++
Differentiation (HL-60; [3]): −
Proliferation (HL-60; [3]): −
cell adhesion and cell-cell contact (HL-60; HL-60 cells, observation under the microscope (FIG. 11)): clearly aggregated together
tumor growth [1]: caused complete tumor suppression
apoptosis [2]: induces apoptosis
